{
  "source": "EPA's ToxValDB 9.5",
  "tested_on": "Bird",
  "conditions": "subchronic, duration: 8 week, oral, drinking water, M, Japanese quail",
  "data": [
    {"smiles": "O=C([O-])C(F)(F)C(F)(F)C(F)(F)C(F)(F)C(F)(F)C(F)(F)C(F)(F)F.[NH4+]", "note": "[Ammonium perfluorooctanoate]", "values": [
      {"measurement": "LOEL", "setting": "PHA skin test (DTH response)", "result": 2.1, "unit": "mg/kg-day"},
      {"measurement": "NOEL", "setting": "PHA skin test (DTH response)", "result": 0.2, "unit": "mg/kg-day"},
      {"measurement": "NOEL", "setting": "bacteremia (subsequent to E. coli challenge) + cellulitis (subsequent to E. coli challenge) + chemiluminescence of ROS produced by innate …", "result": 2.1, "unit": "mg/kg-day"}
    ]}
  ]
}
